From article PMC6440464 (PeerJ, 2019)
Values joined by “and” are separate entries in the source; they are usually repeats but may differ in a detail not shown here. Identical values can stand only once.

Experiment: Pharmacokinetics study after separate oral administration in rats (HPLC-MS of plasma)
Format: in vivo, Sprague-Dawley rats
Details: for Plasma concentrations: individual rats NO. 1-5; for AUC(0-t) / Cmax / Tmax / t1/2z: labelled substance = analyte, individual rats No1-No5
Protocol: A total of 15 SPF Sprague-Dawley rats (SD, male, 190–210 g) were provided by Sino-British Sippr/BK Lab Animal Company Ltd. (Shanghai, China). The rats were kept in standard conditions (22–26 °C; 40–60% relative humidity; 12 h light/dark cycle). Throughout the rearing period, the animals had access to food and water ad libitum. Animal experiments were conducted in accordance with the standard ethical guidelines of the Laboratory Animal Management Committee of Jiangsu Province (SYXK (SU) 2016-0011).
Following 1 week of adaptation, the rats were fasted for about 12 h before dosing, with free access to water. […] After administration of the first dose, blood samples were taken from the retro-orbital vein at 0, 5, 15, 30, 60, 90, 120, 180, 240, 360, 480, and 1,440 min and collected in heparinized tubes. The samples were centrifuged at 3,500 rpm for 10 min at 4 °C and the plasma was stored at −80 °C until analysis.
An Agilent 1,200 series HPLC system (Agilent Technologies, Waldbronn, Germany) equipped with a quaternary pump on-line degasser, auto-sampler and column oven, and an SL G1946D quadruple mass spectrometer (Agilent Technologies, Santa Clara, CA, USA) equipped with an electrospray ionization (ESI) source, were used for separation and detection. Data were acquired and analyzed using Agilent ChemStation Software Version A.01.00 (Agilent Technologies, Santa Clara, CA, USA).
The separation was carried out with an Amethyst C18-H column (150 × 4.6 mm, 5 μm, Sepax Technologies, Newark, DE, USA) with a guard column SB-C18 (10 × 4.6 mm, 5 μm, Phenomenex Technologies, Torrance, USA) at a constant temperature of 25 °C.
The mass spectra were acquired using ESI interfaced to a single quadrupole mass spectrometer. The ionization conditions were as follows: drying gas (N2) flow rate of 11 L/min, drying gas temperature of 350 °C, nebulizing gas (N2) pressure of 35 psi, capillary voltage of 3,500 V, quad temperature of 100 °C, and fragment voltage of 110 V. A series of m/z were monitored using a timed program according to the retention times and characteristic ions for the corresponding HPLC-MS peak obtained by scanning from m/z 100–1,000 in the standard sample.
Briefly, an aliquot of plasma sample (100 μL) was spiked with 5% formic acid (10 μL) in centrifuge tube. Subsequently, hydrochloric acid (2 mol/L, 10 μL) and IS solution (960.00 ng/mL, 20 μL) were added. Then ethyl acetate/n-butyl alcohol (1:1 v/v; 1,000 μL) was used to extract the components. The samples were then homogenized by vortex mixing and centrifuged for 10 min at 14,000 rpm. After centrifugation, 800 μL of supernatant was transferred to another centrifuge tube and the sample was evaporated to dryness. The residues were dissolved in 100 μL of methanol and centrifuged for 10 min at 12,000 rpm. 50 μL of the supernatant was transferred to the vial and an aliquot of 5 μL was injected into the HPLC-MS system for analysis.
DAS 2.0 (Chinese Pharmacological Association, Shanghai, China) was used to calculate the pharmacokinetic parameters using the non-compartment model, including the area under curve (AUC), mean residence time (MRT), half-life ( t1/2z), clearance rate (CL), maximum plasma concentration (Cmax), and time (Tmax). All results are expressed as mean ± standard deviation (SD). One way analysis of variance followed by […] was used for comparison of different groups using Graph pad prism 5 software. A p-value of <0.05 was considered statistically significant.

[1] = IQ group (oral IQ 50 mg/kg), rat plasma
[2] = QG group (oral QG 50 mg/kg), rat plasma
[3] = Qr group (oral Qr 50 mg/kg), rat plasma

O=c1c(O)c(-c2ccc(O)c(O)c2)oc2cc(O)cc(O)c12 [Qr, Quercetin]
Plasma concentrations (IQ group (oral IQ 50 mg/kg), 5 min): 97 ng/mL and 72.1 ng/mL | Plasma concentrations (IQ group (oral IQ 50 mg/kg), 120 min): 1913.8 ng/mL and 3969.5 ng/mL and 3663.4 ng/mL and 3592.6 ng/mL and 4482.8 ng/mL | Plasma concentrations (IQ group (oral IQ 50 mg/kg), 180 min): 2424.7 ng/mL and 3384.3 ng/mL and 2628.6 ng/mL and 529.3 ng/mL and 3851.1 ng/mL | Plasma concentrations (IQ group (oral IQ 50 mg/kg), 240 min): 1940 ng/mL and 3381.2 ng/mL and 2408.4 ng/mL and 1320.4 ng/mL and 1250.9 ng/mL | Plasma concentrations (IQ group (oral IQ 50 mg/kg), 360 min): 1313.4 ng/mL and 2984 ng/mL and 4511 ng/mL and 1879.1 ng/mL and 1080.1 ng/mL | Plasma concentrations (IQ group (oral IQ 50 mg/kg), 480 min): 1825.8 ng/mL and 2829.2 ng/mL and 642.1 ng/mL and 975.9 ng/mL and 503.3 ng/mL | Plasma concentrations (IQ group (oral IQ 50 mg/kg), 1440 min): 90.3 ng/mL and 1333.2 ng/mL and 1663.4 ng/mL and 210.4 ng/mL and 61.1 ng/mL | AUC(0-t) [1]: 2661.03 mg·min/L and 1721.03 mg·min/L and 1261.04 mg·min/L and 1844.61 mg·min/L and 3575.83 mg·min/L | Cmax [1]: 8460 ng/mL and 10370.3 ng/mL and 4575 ng/mL and 4452 ng/mL and 5147 ng/mL | Tmax [1]: 30 min and 60 min | t1/2z [1]: 2.34307 h and 7.45293 h and 4.46562 h and 15.5735 h | Detection in rat plasma (IQ group: oral IQ 50 mg/kg): measured | Plasma concentrations (QG group (oral QG 50 mg/kg), 5 min): 0 ng/mL | Plasma concentrations (QG group (oral QG 50 mg/kg), 120 min): 0 ng/mL and 178 ng/mL and 350 ng/mL and 264.3 ng/mL and 91.3 ng/mL | Plasma concentrations (QG group (oral QG 50 mg/kg), 180 min): 1405.7 ng/mL and 1522.4 ng/mL and 4112 ng/mL and 56.4 ng/mL and 1551 ng/mL | Plasma concentrations (QG group (oral QG 50 mg/kg), 240 min): 2385.9 ng/mL and 4434.6 ng/mL and 6808.5 ng/mL and 1445.9 ng/mL and 1915.9 ng/mL | Plasma concentrations (QG group (oral QG 50 mg/kg), 360 min): 997.6 ng/mL and 4127.1 ng/mL and 4268 ng/mL and 6817.8 ng/mL and 3639.1 ng/mL | Plasma concentrations (QG group (oral QG 50 mg/kg), 480 min): 880.9 ng/mL and 5383.5 ng/mL and 6785.2 ng/mL and 4353.5 ng/mL and 4449.8 ng/mL | Plasma concentrations (QG group (oral QG 50 mg/kg), 1440 min): 254.4 ng/mL and 878.4 ng/mL and 519.9 ng/mL and 325 ng/mL and 366.2 ng/mL | AUC(0-t) [2]: 1100.93 mg·min/L and 4341.94 mg·min/L and 5313.01 mg·min/L and 3484.77 mg·min/L and 3287.74 mg·min/L | Cmax [2]: 2385.9 ng/mL and 5384 ng/mL and 6808 ng/mL and 6818 ng/mL and 4450 ng/mL | Tmax [2]: 480 min (2×) and 240 min and 360 min | t1/2z [2]: 9.05187 h and 8.35598 h and 5.58873 h and 4.1639 h and 3.28813 h | Plasma concentrations (Qr group (oral Qr 50 mg/kg), 5 min): 640.7 ng/mL and 69.5 ng/mL and 57.3 ng/mL and 802.4 ng/mL and 171.1 ng/mL | Plasma concentrations (Qr group (oral Qr 50 mg/kg), 120 min): 4624.9 ng/mL and 4603.8 ng/mL and 5199.9 ng/mL and 1294.5 ng/mL and 3649 ng/mL | Plasma concentrations (Qr group (oral Qr 50 mg/kg), 180 min): 3310.6 ng/mL and 4410.7 ng/mL and 6178.3 ng/mL and 1059.8 ng/mL and 3541.5 ng/mL | Plasma concentrations (Qr group (oral Qr 50 mg/kg), 240 min): 1969.1 ng/mL and 3087.5 ng/mL and 1750.4 ng/mL and 2254.1 ng/mL | Plasma concentrations (Qr group (oral Qr 50 mg/kg), 360 min): 3069.3 ng/mL and 1565.6 ng/mL and 2529.6 ng/mL and 1025.9 ng/mL and 1740.7 ng/mL | Plasma concentrations (Qr group (oral Qr 50 mg/kg), 480 min): 1701.5 ng/mL and 2705.9 ng/mL and 3008.7 ng/mL and 1156.8 ng/mL and 828.8 ng/mL | Plasma concentrations (Qr group (oral Qr 50 mg/kg), 1440 min): 416.7 ng/mL and 431.9 ng/mL and 601.2 ng/mL and 220.4 ng/mL and 329.6 ng/mL | AUC(0-t) [3]: 2664.65 mg·min/L and 3200.67 mg·min/L and 3831.17 mg·min/L and 1368.81 mg·min/L and 1887.27 mg·min/L | Cmax [3]: 7855 ng/mL and 9701 ng/mL and 9916 ng/mL and 3579 ng/mL and 6280 ng/mL | Tmax [3]: 90 min and 30 min | t1/2z [3]: 6.20775 h and 8.55312 h and 6.68888 h and 7.31962 h | Detection in rat plasma (Qr group: oral Qr 50 mg/kg): could be detected in rat plasma | CL (Qr group: oral Qr 50 mg/kg, rat plasma, mean ± SD, n = 5): 20 ± 8 mL/min/kg
